Source: patent US20070056052A1, “Methods of generating knock-out rodents” (priority 2001, published 2007)

How the values were obtained:
mutated HEXA allele mRNA = conditions: increased from undetectable; cited from earlier work
NMD of hMSH2 and hMLH1 = conditions: treatment of freshly drawn whole blood; cited from earlier work
CYP1A1 RNA mutant allele = conditions: cell line with a CYP1A1 mutation; cited from earlier work
NMD = assay: Inhibition of NMD with a protein synthesis inhibitor; conditions: preliminary
Text: The major drawbacks to using the RNA-based cDNA assay are that the gene-specific RNA may not be produced in an easily collectable tissue and mutant RNA may be lost to a great extent by NMD. […] NMD can be minimized by pre-treating collected cells, such as white blood cells, with a protein synthesis inhibitor before RNA collection. This approach has been successful for the yeast gap repair p53 assay (Flaman et al., 1995; Andreutti-Zaugg et al., 1997) and may be extrapolated to in vivo studies by the administration of a protein synthesis inhibitor to rat pups prior to tissue collection. […] The problem of a gene-specific RNA not being produced in tail tissue may be reduced by extending the range of biopsy tissues collected from viable rats, e.g., WBC, liver, skin, etc. In the future as it becomes possible to cryopreserve rat sperm from F1 male rats of mutagenized fathers, their sperm can be frozen and a wide variety of organ-specific RNAs could also be collected and stored, along with DNA from tails or spleens. DNAs or RNAs from a large number of rats could be screened and the appropriate frozen sperm used for the mutant rat recovery via in vitro fertilization and implantation. […]

[1] = even at high doses; cited from earlier work

C[C@@H]1C[C@@H]([C@H](O)CC2CC(=O)NC(=O)C2)C(=O)[C@@H](C)C1 [cyclohexamide]
mRNA levels of the mutated HEXA allele (mutated HEXA allele mRNA): 40 % of the wild-type allele

COc1ccc(C[C@H](N)C(=O)N[C@H]2[C@@H](O)[C@H](n3cnc4c(N(C)C)ncnc43)O[C@@H]2CO)cc1 [puromycin]
NMD of hMSH2 and hMLH1 (NMD of hMSH2 and hMLH1): suppressed
steady-state level of CYP1A1 RNA mutant allele (CYP1A1 RNA mutant allele): fully restored

CC[C@H]1CN2CCc3cc(OC)c(OC)cc3[C@@H]2C[C@@H]1C[C@H]1NCCc2cc(OC)c(OC)cc21 [emetine]
inhibition of NMD (NMD): preliminary success in inhibiting NMD

Gentamicin
short-term toxicity profile [1]: very low short-term toxicity profile even at high doses
